Reference: publication PMC4133348, “Domain Organization, Catalysis and Regulation of Eukaryotic Cystathionine Beta-Synthases” (PLoS ONE, 2014)
Values belong to the molecule of their own block, whether it stands above or below them.

Columns and labels:
hCBS [1] = target: T1, hCBS (Homo sapiens, UniProt P35520); assay: […]serine radioisotope assay of canonical reaction (activation); format: biochemical; settings: 10 mM L-serine, 10 mM L-homocysteine, 0.2 mM PLP, pH 8.6, 37 °C; allosteric activator
T1 construct: gene CBS; full-length, permanent C-terminal 6xHis, E. coli, homotetramer of 63 kDa polypeptides, heme-containing
T1 sequence (P35520 1-551): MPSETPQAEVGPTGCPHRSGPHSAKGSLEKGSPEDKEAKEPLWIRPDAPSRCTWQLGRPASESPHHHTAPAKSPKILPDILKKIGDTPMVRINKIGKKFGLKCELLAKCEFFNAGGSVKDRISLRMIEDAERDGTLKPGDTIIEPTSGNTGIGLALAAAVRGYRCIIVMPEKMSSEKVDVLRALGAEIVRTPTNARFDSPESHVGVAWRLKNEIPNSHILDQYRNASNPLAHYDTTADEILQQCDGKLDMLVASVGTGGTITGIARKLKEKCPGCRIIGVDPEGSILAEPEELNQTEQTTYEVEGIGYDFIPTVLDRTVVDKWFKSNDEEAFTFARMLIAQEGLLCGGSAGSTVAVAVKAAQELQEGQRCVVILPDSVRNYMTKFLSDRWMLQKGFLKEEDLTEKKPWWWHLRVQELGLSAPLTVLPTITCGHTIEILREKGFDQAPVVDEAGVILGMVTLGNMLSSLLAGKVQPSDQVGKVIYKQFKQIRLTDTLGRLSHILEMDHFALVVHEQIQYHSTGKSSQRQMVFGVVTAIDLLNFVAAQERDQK

yCBS [2] = target: T2, yCBS (Saccharomyces cerevisiae, UniProt P32582); assay: isothermal titration calorimetry; format: binding
T2 construct: gene CYS4
T2 sequence (P32582 1-507): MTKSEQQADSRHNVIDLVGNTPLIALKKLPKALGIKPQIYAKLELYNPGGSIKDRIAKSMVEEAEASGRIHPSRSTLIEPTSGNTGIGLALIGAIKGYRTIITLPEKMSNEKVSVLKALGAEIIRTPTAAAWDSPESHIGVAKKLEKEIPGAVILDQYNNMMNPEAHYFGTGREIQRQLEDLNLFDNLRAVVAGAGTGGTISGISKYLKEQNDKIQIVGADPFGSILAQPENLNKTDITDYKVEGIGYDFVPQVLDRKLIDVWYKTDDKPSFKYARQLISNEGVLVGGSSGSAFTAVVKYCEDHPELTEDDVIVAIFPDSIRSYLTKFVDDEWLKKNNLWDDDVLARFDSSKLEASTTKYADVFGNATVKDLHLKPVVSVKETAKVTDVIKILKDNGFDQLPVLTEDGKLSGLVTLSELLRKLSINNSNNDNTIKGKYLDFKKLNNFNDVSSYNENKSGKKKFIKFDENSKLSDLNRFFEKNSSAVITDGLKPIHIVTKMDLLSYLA

yCBS [3] = target: T2, yCBS; assay: differential scanning calorimetry; format: binding; settings: 100 µM AdoMet, 20 mM HEPES pH 7.4, 50 µM PLP, 3 °C/min
dCBS = target: T3, dCBS (Drosophila melanogaster, UniProt Q9VRD9); assay: […]serine radioisotope assay of canonical reaction; format: biochemical; settings: 10 mM L-serine, 10 mM L-homocysteine, 0.2 mM PLP, pH 8.6, 37 °C
T3 construct: gene Cbs; full-length, permanent C-terminal 6xHis (pET28-C-dCBS), E. coli Rosetta2 (DE3), homodimer, heme-containing
T3 sequence (Q9VRD9 1-522): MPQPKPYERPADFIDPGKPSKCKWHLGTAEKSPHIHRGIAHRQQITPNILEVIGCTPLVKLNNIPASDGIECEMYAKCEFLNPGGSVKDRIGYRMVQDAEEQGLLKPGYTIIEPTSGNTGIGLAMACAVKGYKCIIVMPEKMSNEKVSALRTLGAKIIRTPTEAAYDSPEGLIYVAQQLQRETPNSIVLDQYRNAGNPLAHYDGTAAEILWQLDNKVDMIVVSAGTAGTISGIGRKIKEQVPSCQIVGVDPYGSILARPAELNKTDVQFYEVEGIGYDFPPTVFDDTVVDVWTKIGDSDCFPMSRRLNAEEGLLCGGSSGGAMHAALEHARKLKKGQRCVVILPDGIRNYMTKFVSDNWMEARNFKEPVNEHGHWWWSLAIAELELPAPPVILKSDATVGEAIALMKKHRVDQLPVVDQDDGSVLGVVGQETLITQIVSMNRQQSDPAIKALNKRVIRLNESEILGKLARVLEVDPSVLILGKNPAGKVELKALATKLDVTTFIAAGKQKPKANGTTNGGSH

hCBS [4] = target: T1, hCBS; assay: as above; format: biochemical; settings: 10 mM L-serine, 10 mM L-homocysteine, 0.2 mM PLP, pH 8.6, 37 °C; no AdoMet
[5] = target: the molecule itself; assay: native gel or EMSA; purified enzymes (100 ng CBS per lane) separated in a 4–15% polyacrylamide gradient gel under native conditions, transferred to PVDF and probed with monoclonal anti-6xHis antibody; oligomeric state of each enzyme
[6] = target: T4, human cystathionine beta-synthase, full-length (human), P35520; assay: as above; settings: remark: other sources report otherwise
T4 chain: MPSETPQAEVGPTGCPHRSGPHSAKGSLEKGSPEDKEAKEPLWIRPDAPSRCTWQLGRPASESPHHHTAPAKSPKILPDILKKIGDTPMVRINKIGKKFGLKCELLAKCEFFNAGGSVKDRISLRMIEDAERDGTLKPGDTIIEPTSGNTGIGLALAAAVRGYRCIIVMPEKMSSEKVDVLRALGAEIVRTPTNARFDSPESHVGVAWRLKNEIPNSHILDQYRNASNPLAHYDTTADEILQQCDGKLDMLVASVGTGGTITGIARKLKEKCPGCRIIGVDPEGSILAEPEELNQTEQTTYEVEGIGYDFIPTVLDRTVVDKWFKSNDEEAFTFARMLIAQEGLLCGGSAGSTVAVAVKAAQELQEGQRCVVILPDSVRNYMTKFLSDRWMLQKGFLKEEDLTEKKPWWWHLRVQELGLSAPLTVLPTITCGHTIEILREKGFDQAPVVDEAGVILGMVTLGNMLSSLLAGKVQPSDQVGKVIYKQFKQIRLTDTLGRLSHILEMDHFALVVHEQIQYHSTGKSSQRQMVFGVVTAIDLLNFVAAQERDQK

- fold increase in specific activity at 300 μM (hCBS [1]): ~ 3.2 fold
- Kd (yCBS [2]): 5 ± 0.5 µM
- dTm (yCBS [3]): ~ 0.2 °C
Molecule: C[S+](CC[C@H](N)C(=O)O)C[C@H]1O[C@@H](n2cnc3c(N)ncnc32)[C@H](O)[C@@H]1O (stereo partly shown) [AdoMet]

Molecule: N[C@@H](CO)C(=O)O [Ser]
- [14C]serine radioisotope assay of canonical reaction (dCBS): specific activity compared to hCBS in the canonical condensation of Ser and Hcy
- [14C]serine radioisotope assay of canonical reaction (hCBS [4]): specific activity compared to hCBS in the canonical condensation of Ser and Hcy

B1: 45 kDa hCBS (hCBS V414*), truncated human cystathionine beta-synthase lacking the regulatory domain (domain or fragment, UniProt P35520 1-413, looked up)
chain: MPSETPQAEVGPTGCPHRSGPHSAKGSLEKGSPEDKEAKEPLWIRPDAPSRCTWQLGRPASESPHHHTAPAKSPKILPDILKKIGDTPMVRINKIGKKFGLKCELLAKCEFFNAGGSVKDRISLRMIEDAERDGTLKPGDTIIEPTSGNTGIGLALAAAVRGYRCIIVMPEKMSSEKVDVLRALGAEIVRTPTNARFDSPESHVGVAWRLKNEIPNSHILDQYRNASNPLAHYDTTADEILQQCDGKLDMLVASVGTGGTITGIARKLKEKCPGCRIIGVDPEGSILAEPEELNQTEQTTYEVEGIGYDFIPTVLDRTVVDKWFKSNDEEAFTFARMLIAQEGLLCGGSAGSTVAVAVKAAQELQEGQRCVVILPDSVRNYMTKFLSDRWMLQKGFLKEEDLTEKKPWWWHLR
notes: cystathionine beta-synthase, Homo sapiens, C-terminally truncated by a stop at V414 (regulatory domain removed); not shown: 6xHis, C-terminal, kept
- stoichiometry N [5]: 2

- stoichiometry N [6]: 4
B2: human cystathionine beta-synthase, full-length, P35520 1-551 (enzyme)
chain: MPSETPQAEVGPTGCPHRSGPHSAKGSLEKGSPEDKEAKEPLWIRPDAPSRCTWQLGRPASESPHHHTAPAKSPKILPDILKKIGDTPMVRINKIGKKFGLKCELLAKCEFFNAGGSVKDRISLRMIEDAERDGTLKPGDTIIEPTSGNTGIGLALAAAVRGYRCIIVMPEKMSSEKVDVLRALGAEIVRTPTNARFDSPESHVGVAWRLKNEIPNSHILDQYRNASNPLAHYDTTADEILQQCDGKLDMLVASVGTGGTITGIARKLKEKCPGCRIIGVDPEGSILAEPEELNQTEQTTYEVEGIGYDFIPTVLDRTVVDKWFKSNDEEAFTFARMLIAQEGLLCGGSAGSTVAVAVKAAQELQEGQRCVVILPDSVRNYMTKFLSDRWMLQKGFLKEEDLTEKKPWWWHLRVQELGLSAPLTVLPTITCGHTIEILREKGFDQAPVVDEAGVILGMVTLGNMLSSLLAGKVQPSDQVGKVIYKQFKQIRLTDTLGRLSHILEMDHFALVVHEQIQYHSTGKSSQRQMVFGVVTAIDLLNFVAAQERDQK

B3: yCBS L345*, truncated Saccharomyces cerevisiae cystathionine beta-synthase lacking the regulatory domain (domain or fragment, UniProt P32582 1-344, looked up)
chain: MTKSEQQADSRHNVIDLVGNTPLIALKKLPKALGIKPQIYAKLELYNPGGSIKDRIAKSMVEEAEASGRIHPSRSTLIEPTSGNTGIGLALIGAIKGYRTIITLPEKMSNEKVSVLKALGAEIIRTPTAAAWDSPESHIGVAKKLEKEIPGAVILDQYNNMMNPEAHYFGTGREIQRQLEDLNLFDNLRAVVAGAGTGGTISGISKYLKEQNDKIQIVGADPFGSILAQPENLNKTDITDYKVEGIGYDFVPQVLDRKLIDVWYKTDDKPSFKYARQLISNEGVLVGGSSGSAFTAVVKYCEDHPELTEDDVIVAIFPDSIRSYLTKFVDDEWLKKNNLWDDDV
notes: cystathionine beta-synthase, Saccharomyces cerevisiae, C-terminally truncated at L345 (pET28-C-yCBS L345*); Cloned by NcoI and XhoI into pET-28a; source: E. coli Rosetta2 (DE3), purified (TALON, DEAE Sepharose); not shown: 6xHis, C-terminal, kept
- stoichiometry N [5]: 2

B4: Drosophila melanogaster cystathionine beta-synthase, full-length (enzyme, UniProt Q9VRD9 1-522, looked up)
chain: MPQPKPYERPADFIDPGKPSKCKWHLGTAEKSPHIHRGIAHRQQITPNILEVIGCTPLVKLNNIPASDGIECEMYAKCEFLNPGGSVKDRIGYRMVQDAEEQGLLKPGYTIIEPTSGNTGIGLAMACAVKGYKCIIVMPEKMSNEKVSALRTLGAKIIRTPTEAAYDSPEGLIYVAQQLQRETPNSIVLDQYRNAGNPLAHYDGTAAEILWQLDNKVDMIVVSAGTAGTISGIGRKIKEQVPSCQIVGVDPYGSILARPAELNKTDVQFYEVEGIGYDFPPTVFDDTVVDVWTKIGDSDCFPMSRRLNAEEGLLCGGSSGGAMHAALEHARKLKKGQRCVVILPDGIRNYMTKFVSDNWMEARNFKEPVNEHGHWWWSLAIAELELPAPPVILKSDATVGEAIALMKKHRVDQLPVVDQDDGSVLGVVGQETLITQIVSMNRQQSDPAIKALNKRVIRLNESEILGKLARVLEVDPSVLILGKNPAGKVELKALATKLDVTTFIAAGKQKPKANGTTNGGSH
notes: Cloned by NcoI and HindIII into pET-28a; also called dCBS; source: E. coli Rosetta2 (DE3), purified (TALON, DEAE Sepharose); not shown: 6xHis, C-terminal, kept
- stoichiometry N [5]: 2

B5: Saccharomyces cerevisiae cystathionine beta-synthase, full-length (enzyme, UniProt P32582 1-507, looked up)
chain: MTKSEQQADSRHNVIDLVGNTPLIALKKLPKALGIKPQIYAKLELYNPGGSIKDRIAKSMVEEAEASGRIHPSRSTLIEPTSGNTGIGLALIGAIKGYRTIITLPEKMSNEKVSVLKALGAEIIRTPTAAAWDSPESHIGVAKKLEKEIPGAVILDQYNNMMNPEAHYFGTGREIQRQLEDLNLFDNLRAVVAGAGTGGTISGISKYLKEQNDKIQIVGADPFGSILAQPENLNKTDITDYKVEGIGYDFVPQVLDRKLIDVWYKTDDKPSFKYARQLISNEGVLVGGSSGSAFTAVVKYCEDHPELTEDDVIVAIFPDSIRSYLTKFVDDEWLKKNNLWDDDVLARFDSSKLEASTTKYADVFGNATVKDLHLKPVVSVKETAKVTDVIKILKDNGFDQLPVLTEDGKLSGLVTLSELLRKLSINNSNNDNTIKGKYLDFKKLNNFNDVSSYNENKSGKKKFIKFDENSKLSDLNRFFEKNSSAVITDGLKPIHIVTKMDLLSYLA
notes: Cloned by NcoI and XhoI into pET-28a; also called yCBS; yCBS WT; source: E. coli Rosetta2 (DE3), purified (TALON, DEAE Sepharose); not shown: 6xHis, C-terminal, kept
- stoichiometry N [5]: 4
